# From patent publication US11305012B2, “Binding molecules specific for HER3 and uses thereof” (MedImmune, LLC, priority 2013, dated 2022)
# Tests used:
# [1] = test system: human MCF-7 breast cancer xenograft; experiment: Orthotopic human MCF-7 breast cancer xenograft model; assay type: in vivo, mouse; settings: MCF-7 orthotopic, 10 mg/kg
# Procedure: Human MCF-7 breast cancer cells were maintained at 37° C. in a 5% CO2 incubator in Optimem medium containing glutamax, 2.4/L sodium bicarbonate, Hepes and 5% fetal bovine serum. Orthotopic xenografts were established by injecting 5×10^6 cells per mouse (suspended in 50% matrigel) into the mammary fat pad on the right flank of 4 to 6-week-old athymic nu/nu mice. Estrogen pellets (0.36 mg) were placed under the skin of the left flank 1-2 days before cell injection. […] Paclitaxel was administered intravenously at 10 mg per kilogram body weight. Caliper measurements were used to calculate tumor volumes using the formula: tumor volume=π÷6(length×width×width) • for tumors grown in mice.
# [2] = test system: HER3, pHER3 and pAKT in SW620, SW480, Colo205, LOVO, HCT15, Caco-2; experiment: HRG-stimulated HER3 signaling in CRC tumor cell lines (Western); assay type: cell-based, human; settings: antibodies 10 μg/mL, gefitinib 5 μM, HRG 50 ng/mL
# Procedure: In the presence of the HER3 ligand heregulin (HRG), HER3 heterodimerizes with EGFR or HER2, which leads to phosphorylation of HER3 and transmission of an oncogenic signal via phosphoinositide 3 kinase (PI3K) and protein kinase B (PKB), also known as AKT. A collection of CRC models were characterized to determine which receptor tyrosine kinase, EGFR or HER2, is the major driver of signaling through HER3. […] Briefly, cells were seeded into 24-well plates at a density of 1.5×10^5 cells per well. […] After 5-6 hours of incubation at 37° C., HRG was added at 50 ng/mL into one set of cells for 15 minutes at 37° C. All cells were then washed with cold PBS and lysed by the addition of 60 μL of 2×SDS (sodium dodecyl sulfate) sample buffer (Invitrogen). Lysates were transferred to 1.5 mL tubes and boiled for 5 minutes followed by chilling on ice for 2 minutes. Equal volumes (20 μL) of protein samples were resolved in NuPAGE Novex Bis-Tris gels (Invitrogen) before transfer to polyvinylidene fluoride (PVDF) membranes (Invitrogen). […] After washing, protein bands were detected on X-ray film by using SuperSignal West Pico Chemiluminescent Substrate (Pierce/Thermo Scientific).
# [3] = test system: BT-474 xenografts; experiment: Orthotopic human BT-474 breast cancer xenograft model; assay type: in vivo, mouse; settings: BT-474 orthotopic, antibodies 30 mg/kg, lapatinib 100 mg/kg
# Procedure: (§1) Orthotopic xenografts were established by injecting 1×10^7 cells per mouse (suspended in 50% matrigel) into the mammary fat pad on the right flank of 4 to 6-week-old athymic nu/nu mice. Estrogen pellets (0.36 mg) were placed under the skin of the left flank 1-2 days before cell injection. […] Lapatinib was administered by oral gavaging at 100 mg per kilogram body weight. Caliper measurements were used to calculate tumor volumes using the formula: tumor volume=π÷6(length×width×width) • for tumors grown in mice.
# [4] = test system: MDA-MB-361 xenografts; experiment: Orthotopic human MDA-MB-361 breast cancer xenograft model; assay type: in vivo, mouse; settings: trastuzumab and rhuMAb 2C4 10 mg/kg, lapatinib 100 mg/kg twice daily, 2C2-YTE 30 mg/kg
# Procedure: as §1, with “5×10^6” for “1×10^7”
# [5] = test system: JIMT-1 breast cancer xenografts; experiment: Orthotopic human JIMT-1 breast cancer xenograft model; assay type: in vivo, mouse
# Procedure: Orthotopic xenografts were established by injecting 5×10^6 cells per mouse (suspended in 50% matrigel) into the mammary fat pad on the right flank of 4 to 6-week-old athymic nu/nu mice. […] Treatment with antibodies were administered starting at day 8 post-implantation of JIMT-1 cells. […]
# [6] = 10 mpk (each), day 32 post-implantation of JIMT-1 cells, vs control IgG1
compound,measurement,setting,value
"CC(=O)O[C@H]1C(=O)[C@@]2(C)[C@H]([C@H](OC(=O)c3ccccc3)[C@]3(O)C[C@H](OC(=O)[C@H](O)[C@@H](NC(=O)c4ccccc4)c4ccccc4)C(C)=C1C3(C)C)[C@]1(OC(C)=O)CO[C@@H]1C[C@@H]2O [Paclitaxel, paclitaxel, reference compound]",anti-tumor efficacy (in words),[1],clear anti-tumor efficacy
COc1cc2ncnc(Nc3ccc(F)c(Cl)c3)c2cc1OCCCN1CCOCC1 [gefitinib],"effect on HRG ligand-dependent signaling (HER3, pHER3, pAKT; in words)",[2],no effect
"CS(=O)(=O)CCNCc1ccc(-c2ccc3ncnc(Nc4ccc(OCc5cccc(F)c5)c(Cl)c4)c3c2)o1 [lapatinib, reference compound]",anti-tumor efficacy (in words),[3],tumor stasis
same,anti-tumor efficacy (in words),[4],showed anti-tumor efficacy
"pertuzumab [RhuMAb 2C4, reference compound]",% TGI,[5]; [6],13.64%
same,% dTGI,[5]; [6],17.42%
same,anti-tumor efficacy (in words),"[5]; JIMT-1, 10 mg/kg (each)",did not result in any significant reduction
same,"effect on HRG ligand-dependent signaling (HER3, pHER3, pAKT; in words)",[2],inhibit HRG ligand-dependent signaling
same,anti-tumor efficacy (in words),[4],showed anti-tumor efficacy
